Experimental data: paper PMC12652692, “Synthesis and In Vitro Anticancer Evaluation of Novel Phosphonium Derivatives of Chrysin” (International Journal of Molecular Sciences, 2025)
“Also recorded” adds a separate entry of the source. Like-named read-outs stand apart in the source and are kept apart here.

Legend:
[1] = system: NIH/3T3 (fibroblast); experiment: MTT antiproliferative assay; type: cell-based, murine; details: Mus musculus; for inhibition at 10 µM: NIH3T3, 10 μM; for IC50: NIH3T3, read-out: IC50 Value (μM) ± SEM
Excerpt: (§1) As the NCI has not been accepting compound submissions from investigators outside the USA for NCI-60 testing since 2024, chrysin derivatives 3i, 3j, and 5 were instead evaluated in additional viability assays against a simplified panel of human cancer cell lines representing breast (MCF-7 and MDA-MB-231), cervical (HeLa and SiHa), and ovarian cancers. A nonmalignant fibroblast cell line (NIH/3T3) was also used to obtain preliminary results describing the cancer selectivity of the test substances. […] The two effective agents were further investigated using a broad concentration range (0.1–30 µM), and their IC50 values were calculated (Table 3).
(§2) The cell growth-inhibiting properties of compounds 3i, 3j, and 5 were determined by means of the MTT assay against a panel of human malignant cell lines of gynecological origin [8, 27, 40]. The panel included breast (MCF-7 and MDA-MB-231; Cellosaurus accessions: CVCL_0031 and CVCL_0062, respectively), cervical (HeLa and SiHa; CVCL_0030 and CVCL_0032, respectively), and ovarian (A2780; CVCL_0134) cell lines. Nonmalignant murine NIH/3T3 (CVCL_0594) fibroblasts were also used to obtain results characterizing the cancer selectivity of the tested substances. The whole assay was performed as described earlier. […] All applied cell lines were obtained from the European Collection of Cell Cultures (Salisbury, UK), except for SiHa (American Tissue Culture Collection, Manassas, VA, USA). Cisplatin, a clinically available anticancer drug, was included as a reference compound. All experiments were conducted twice, with at least five replicates per condition.

[2] = system: HeLa; experiment: MTT antiproliferative assay; type: cell-based, human; details: for IC50 / inhibition at 10 µM / inhibition at 30 µM: Homo sapiens, HeLa; for IC50: read-out: IC50 Value (μM) ± SEM; for Selectivity Ratio: IC50 on NIH/3T3 fibroblasts / IC50 on HeLa
Excerpt: as §1, §2

[3] = system: A2780; experiment: MTT antiproliferative assay; type: cell-based, human; details: for IC50 / inhibition at 10 µM / inhibition at 30 µM: Homo sapiens; for IC50: read-out: IC50 Value (μM) ± SEM; for inhibition at 10 µM: A2780, 10 μM; for inhibition at 30 µM: A2780, 30 μM; for Selectivity Ratio: IC50 on NIH/3T3 fibroblasts / IC50 on A2780
Excerpt: as §1, §2

[4] = system: MDA-MB-231; experiment: MTT antiproliferative assay; type: cell-based, human; details: for IC50 / inhibition at 10 µM / inhibition at 30 µM: Homo sapiens; for IC50: read-out: IC50 Value (μM) ± SEM; for inhibition at 10 µM: MDA-MB-231, 10 μM; for inhibition at 30 µM: MDA-MB-231, 30 μM; for Selectivity Ratio: IC50 on NIH/3T3 fibroblasts / IC50 on MDA-MB-231
Excerpt: as §1, §2

[5] = system: MCF-7; experiment: MTT antiproliferative assay; type: cell-based, human; details: for inhibition at 10 µM / inhibition at 30 µM / IC50: Homo sapiens, MCF7; for inhibition at 10 µM: MCF-7, 10 μM; for inhibition at 30 µM: MCF-7, 30 μM; for IC50: MCF-7, read-out: IC50 Value (μM) ± SEM; for Selectivity Ratio: IC50 on NIH/3T3 fibroblasts / IC50 on MCF-7
Excerpt: as §1, §2

[6] = system: SiHa; experiment: MTT antiproliferative assay; type: cell-based, human; details: for IC50 / inhibition at 10 µM / inhibition at 30 µM: Homo sapiens, SiHa; for IC50: read-out: IC50 Value (μM) ± SEM; for Selectivity Ratio: IC50 on NIH/3T3 fibroblasts / IC50 on SiHa
Excerpt: as §1, §2

[7] = system: panel of human malignant cell lines of gynecological origin; experiment: MTT antiproliferative assay, whole panel; type: cell-based; details: for inhibition at 10 µM / IC50: Homo sapiens; for inhibition at 10 µM: across the tested cell lines, read-out: inhibition rates; for IC50: HeLa, SiHa, MCF-7, MDA-MB-231, A2780, read-out: IC50 values (range over cancer cell lines)
Excerpt: as §1
Besides the cell growth-inhibiting potency, cancer selectivity is a crucial factor determining the perspective of a drug candidate. This property is expressed as a selectivity ratio, i.e., the ratio of the compound’s IC50 obtained on the non-cancerous fibroblasts and those from the cancer cell lines. A higher ratio indicates more promising cancer selectivity (Table 3). […] Based on these efficacy and selectivity data, further cell-based studies were performed with 3i against MCF-7 breast cancer cells.
as §2

[8] = system: MCF-7 cells; experiment: Wound-healing assay (migration); type: cell-based, human
Method: The effect of the selected compound on the migration of MCF-7 cells was investigated by means of the wound-healing assay.
The effect of substance 3i on the migration of the treated cancer cells was determined using a wound-healing assay, as presented earlier. Briefly, MCF-7 cells were trypsinized and plated into wound assay chambers (ibidi GmbH, Martinsried, Germany) at a density of 40,000 cells/insert, and the plate was incubated under standard conditions to allow proper attachment. Then, the inserts were carefully removed, and the cells were subsequently treated with 3i in fresh medium containing 2% FBS. The cell migration was recorded using a phase-contrast inverted microscope (Nikon Instruments Europe, Amstelveen, The Netherlands) fitted with a CCD camera (QImaging MicroPublisher Color RTV5.0 Teledyne Photometrics, Tucson, AZ, USA). The cell-free areas in treated samples and controls were determined using ImageJ software 1.54d (National Institutes of Health, Bethesda, MD, USA). The assays were performed in triplicates and all the statistical analyses were carried out by means of GraphPad Prism software.

[9] = system: MCF-7 cells; experiment: Cell cycle analysis by flow cytometry; type: cell-based, human; details: MCF-7, 0.3 and 0.6 µM
Method: The observed cell cycle disturbance is consistent with a blockade at the G1–S transition, which triggers apoptotic cell death.
Cell cycle analysis by flow cytometry was applied to characterize the effects of 3i on the phase distribution of the treated cells. MCF-7 cells were seeded onto 12-well plates (200,000 cells/well) and incubated overnight. They were then treated with 0.3 or 0.6 μM for 24 or 48 h. After the treatment, the propidium iodide-labeled cells were analyzed using a CytoFLEX instrument (Beckman Coulter, Brea, CA, USA), and at least 20,000 cells per sample were evaluated, as described in a recent publication. The obtained data were processed using ModFit LT 3.3.11 software (Verity Software House, Topsham, ME, USA) as referenced by Vermes et al..

[10] = system: SiHa; parameters: method as in PMID 40332477; details: published earlier ref 8, read-out: IC50 Value (μM) ± SEM; cited from earlier work
[11] = system: MCF-7; parameters: method as in PMID 40332477; details: published earlier ref 8, read-out: IC50 Value (μM) ± SEM; cited from earlier work
[12] = system: NIH/3T3 (fibroblast); parameters: method as in PMID 40332477; details: published earlier ref 8, read-out: IC50 Value (μM) ± SEM; cited from earlier work
[13] = system: A2780; parameters: method as in PMID 40332477; details: published earlier ref 8, read-out: IC50 Value (μM) ± SEM; cited from earlier work
[14] = system: MDA-MB-231; parameters: method as in PMID 40332477; details: published earlier ref 8, read-out: IC50 Value (μM) ± SEM; cited from earlier work
[15] = system: HeLa; parameters: method as in PMID 40332477; details: published earlier ref 8, read-out: IC50 Value (μM) ± SEM; cited from earlier work
[16] = read-out: Growth Inhibition (%) ± SEM
[17] = NIH3T3, 30 μM, read-out: Growth Inhibition (%) ± SEM
[18] = read-out: Growth Inhibition (%) ± SEM (converted)
[19] = heading: Growth Inhibition ± SEM
[20] = A2780, heading: Growth Inhibition ± SEM
[21] = MDA-MB-231, heading: Growth Inhibition ± SEM

Compound	inhibition at 10 µM [1, 16] [%]	inhibition at 30 µM [1, 17] [%]	IC50 [1] [µM]	IC50 [2] [µM]	inhibition at 10 µM [2, 16] [%]	inhibition at 30 µM [2, 18] [%]	Selectivity Ratio [2]	IC50 ([3]; A2780) [µM]	inhibition at 10 µM [3, 16] [%]	inhibition at 30 µM [3, 18] [%]	Selectivity Ratio [3]	IC50 ([4]; MDA-MB-231) [µM]	inhibition at 10 µM [4, 16] [%]	inhibition at 30 µM [4, 18] [%]	Selectivity Ratio [4]	inhibition at 10 µM [5, 16] [%]	inhibition at 30 µM [5, 16] [%]	IC50 [5] [µM]	Selectivity Ratio [5]	Selectivity Ratio [6]	other results
COc1ccccc1[P+](CCCCOc1cc(O)c2c(=O)cc(-c3ccccc3)oc2c1)(c1ccccc1)c1ccccc1 [3i]	97.73 ± 0.53	98.5	1.66 ± 0.15	1.08 ± 0.02	96.5 ± 2.76	98.9	1.54	0.66 ± 0.03	96.85 ± 0.37	98.3	2.52	0.54 ± 0.02	88.6 ± 3.72	87.4	3.07	95.4 ± 1.54	95.8 ± 1.46	0.26 ± 0.02	6.38	1.44	IC50 [6]: 1.15 ± 0.03 µM; inhibition at 10 µM [6, 16]: 83.2 ± 2.13%; inhibition at 30 µM [6, 18]: 104%; inhibition at 10 µM [7]: > 80%; IC50 [7]: 260 to 1150 nM; inhibition of migration ([8]; MCF-7, 24 h): significant inhibition in the migration capacity at a concentration of 0.3 μM only; inhibition of migration ([8]; MCF-7, 48 h): significant even at subantiproliferative concentration (0.1 μM); cell cycle distribution ([9]; 24 h): significantly increased the proportion of the G0/G1 cell population; cell cycle distribution ([9]; 48 h): statistically significant accumulation of the hypodiploid (SubG1) cell population
CC(C)(C)[P+](CCCCOc1cc(O)c2c(=O)cc(-c3ccccc3)oc2c1)(c1ccccc1)c1ccccc1 [3j]	98.38 ± 0.53	99	1.96 ± 0.01	2.93 ± 0.02	96.64 ± 0.26	97.5	0.67	1.37 ± 0.04	98.77 ± 0.19	98.96 ± 0.381	1.43	1.24 ± 0.02	98 ± 1.03	98.1 ± 0.13	1.58	98.65 ± 0.29	98.68 ± 0.32	0.88 ± 0.01	2.23	1.33	IC50 [6]: 1.47 ± 0.01 µM; inhibition at 10 µM [6, 16]: 97.91 ± 0.06%; inhibition at 30 µM [6, 18]: 97.81 ± 0.46%; inhibition at 10 µM [7]: > 80%; IC50 [7]: 880 to 2930 nM
N.N.[Cl][Pt][Cl] [Cisplatin]	–	–	–	–	–	–	0.20	–	–	–	1.93	–	–	–	0.14	–	–	–	1.04	0.17	IC50 [10]: 15.5 ± 0.93 µM; IC50 [11]: 2.6 ± 0.17 µM; IC50 [12]: 2.7 ± 0.3 µM; IC50 [13]: 1.4 ± 0.11 µM; IC50 [14]: 19.13 ± 0.12 µM; IC50 [15]: 13.6 ± 0.44 µM
O=C(CC(c1ccccc1)(c1ccccc1)c1ccccc1)Oc1cc(O)c2c(=O)cc(-c3ccccc3)oc2c1 [compound 5]	> 10	–	–	–	–	–	–	–	–	–	–	–	–	–	–	–	–	–	–	–	inhibition at 30 µM ([1]; NIH3T3, heading: Growth Inhibition ± SEM, 30 μM): < 10%; inhibition at 10 µM [2, 19]: < 10%; inhibition at 30 µM [2, 19]: < 10%; inhibition at 10 µM [3, 20]: < 10%; inhibition at 30 µM [3, 20]: < 10%; inhibition at 10 µM [4, 21]: < 10%; inhibition at 30 µM [4, 21]: < 10%; inhibition at 10 µM [5, 19]: < 10%; inhibition at 30 µM [5, 19]: < 10%; inhibition at 10 µM [6, 19]: < 10%; inhibition at 30 µM [6, 19]: < 10%; cell growth-inhibiting effect (in words) ([7]; 10 and 30 μM): ineffective; also recorded: no cytotoxicity
